For data set [1] the following is noted: cited from earlier work.
Data set [2] deals with human melanoma cells. Description: GSH/GSSG toxicity (conclusions over the lines). The data set is classed as cell-based. The note with it: GSH/GSSG contents; statin 20 μM with Docetaxel 0.5 μM. How it is done: (§1) Toxicities of the applied drugs were tested by a measurement of reduced and oxidised glutathione GSH/GSSG contents in the human melanoma cells. The glutathione contents were analysed by RP-HPLC. A method from prior art [references 1-4] was used.
(§2) The applied method consists in a reaction of GSH and GSSG with N-dinitrofluorobenzene, yielding N,S-dinitro-derivatives in the case of GSH and N,N-dinitro-derivatives in the case of GSSG. The elutions were carried out in a water-acetonitrile system, in accordance to the increasing acetonitrile concentration.
Determination of the levels of reduced glutathione, oxidised glutathione, and total glutathione were carried out using an RP-HPLC system from Shimadzu (SPD-M10VP photodiode matrix detector, class VP 7.2 software). The separations were carried out at a temperature of 20° C. using a Luna 5u C18 (Z) column (250 mm×4.6 mm, from Phenomenex), with a guard column with the same packing. Grade solvents were used as the eluant in the separations: acetonitrile/0.1% TFA and H2O/0.1% TFA. The separation was obtained in gradient elution, under a non-linear increase in the acetonitrile concentration from 20% to 100% during 90 minutes, at a flow of 1.0 ml/min. […]
Toxicities of the applied drugs were tested by a measurement of GSH/GSSG contents in the human melanoma cells. The glutathione contents were analysed by HPLC. […]

For data set [3] the following is noted: water/n-octanol; cited from earlier work.
The subject of data set [4] is human melanoma cells. Briefly: Taxol take-up into cells, HPLC (conclusions over the lines). The data set is classed as cell-based. The note with it: for effect on take-up of taxanes into human melanoma cells: statin with docetaxel.
Data set [5] deals with A375P human melanoma cells. Description: GSH/GSSG glutathione content and cell count (toxicity), RP-HPLC. The format is cell-based. The note with it: Docetaxel 0.5 μM, statin 20 μM. How it is done: as §1, §2
(§3) Determination of the levels of reduced glutathione, oxidised glutathione, and total glutathione were carried out using an RP-HPLC system from Shimadzu (SPD-M10VP photodiode matrix detector, class VP 7.2 software). The separations were carried out at a temperature of 20° C. using a Luna 5u C18 (Z) column (250 mm×4.6 mm, from Phenomenex), with a guard column with the same packing. Grade solvents were used as the eluant in the separations: acetonitrile/0.1% TFA and H2O/0.1% TFA. The separation was obtained in gradient elution, under a non-linear increase in the acetonitrile concentration from 20% to 100% during 90 minutes, at a flow of 1.0 ml/min. Samples with a volume of 20 μl were introduced into the column, filtered earlier using PTFE filters with a pore diameter of 0.2 μm (Supelco). The analysis of the compounds was carried out with UV-VIS detection at 365 nm. The cells were suspended in a 70% PCA/1 mM BPDS/0.9% NaCl solution in a 1:3 ratio, sonicated for 3×5 seconds (Bandelin SonoplusGM70) at a temperature of 4° C. and centrifuged under 1400 g at a temperature of 4° C. for 10 minutes. The prepared supernatant was used for the assays.
(§4) For identification of the tested compounds, proper standard solutions were used: GSH and GSSG.
(§5) All standard solutions were prepared in 10% PCA/1 mM BPDS, in redistilled water.
(§6) To determine the GSH and GSSG levels, calibration curves were used, prepared for standard solutions in the concentration range of 13 to 75 nmol/ml of the corresponding cell homogenate. The incubation mixture contained, respectively: supernatant originating from the cells, N-methyl-L-lysine (internal standard), 10% PCA/1 mM BPDS, 2 M KOH-2.4 M KHCO3 and 1% DNFB.
(§7) In the case of the calibration curve, the incubation mixture was prepared in an analogous way, but various volumes of standard solutions were added, and the final volume was controlled by the amount of the 10% PCA/1 mM BPDS added. After 24 h derivatization at room temperature, in darkness, the samples were acidified by adding 70% PCA and centrifuged for 2 minutes under 5600 g. The obtained supernatant was filtered through a PTFE-Supelco filter, introduced into the column, and 90-minute separation of the analysed compounds was carried out. The chromatograms were worked out identifying the compounds being separated according to their retention times, based on the standards available, and totalising the surface areas of the chromatographic peaks in the ranges of selected retention times.
(§8) Toxicities of the applied drugs were tested by a measurement of GSH/GSSG contents in the human melanoma cells. The glutathione contents were analysed by HPLC. A method drawn from the papers by [Bronowicka, Wróbel, Dominik] was used, described in detail in Example 2.

Data set [6] deals with WM239A human melanoma cells. Described as above. The format is cell-based. Particulars: Docetaxel 0.5 μM, statin 20 μM. How it is done:
as §1, §2, §3, §4, §5, §6, §7, §8

For data set [7], the system named is WM35 human melanoma cells. The data set is described as above. The data set is classed as cell-based. The note with it: Docetaxel 0.5 μM, statin 20 μM. How it is done: as §1, §2, §3, §4, §5, §6, §7, §8
Data set [8] relates to A375P human melanoma cells. Briefly: Taxol take-up into cells, HPLC. The data set is classed as cell-based. How it is done: (§9) The tests were carried out using cell lines of human melanoma originating from three stages of development: WM35 of the radial growth phase, WM239A metastatic line and A375P metastasis to lungs, malignant line. For every measuring point, cells were grown in 4 100 mm coming dishes for each separate cell line. […] The analyses were repeated thrice in independent experiments, obtaining similar results. The results were averaged and reported in μM per a million of cells. The cells were counted using a Countess Invitrogen™ counter.
(§10) For determination of the amount of drug absorbed by the melanoma cells, chromatographic method was used. An HPLC system (Shimadzu Corporation Japan) consisting of two LC 10AT vp high-pressure pumps, a DGU-14A degasser, a CTO-10 ASvp oven for the column thermostating, an SIL-10 ADvp automatic sample feeder, and an SPD-M10 Avp diode detector, was used for the measurements. CLASS-VP 7.2.1 software was used.
(§11) The samples were separated on a Phenomenex Gemini −Nx 5μ C18 (4.6×150 mm i.d) column+guard column from Phenomenex (4×3 mm i.d.) with identical packing, at a temperature of 20° C. Eluant with the following composition: solvent A (water+0.1% trifluoroacetic acid [TFA]) and solvent B (acetonitrile 0.1% TFA) was used. The sample was separated in the following gradient system: 20% of solvent B to 30% of solvent B linearly for 15 min, next linearly to 34% for 6 min, linearly to 100% of solvent B for 24 min consecutively, then 10 min isocratically at 100% of solvent B. The column was recalibrated for […] in 20% of solvent B. 20-μl samples were introduced at a flowrate of 1.0 ml/min during 65 min with a UV-Vis detection at 220 nm.
(§12) The results were validated in two steps, by comparing the obtained Rt values to Rt values of standards, and by analysis of spectra of the separated compound and their comparison with spectra of the standards.
(§13) A frozen dry pellet was flushed with 650 μl of a solution (2/1 isopropanol, methanol+10% acetonitrile), then sonicated 3×15 s and frozen for 24 h. After thawing, the sample was shaken lightly for 30 min, 200 μl of physiological saline and 1083 μl of chloroform were added, stirring vigorously for 3×4 min. Separation of the organic phase from the aqueous phase was carried out by centrifugation at 10,000 revolutions/10 min. The collected chloroform phase were subjected to concentration under partial vacuum in a concentrator at 4° C., and to second drying under argon atmosphere. The precipitate was dissolved in 100 μl of methanol and separated by HPLC.
(§14) The tests were carried out using methods described in detail in Example 3.

In data set [9] the test system is WM239A human melanoma cells. Briefly: Taxol take-up into cells, HPLC. The data set is classed as cell-based. How it is done:
as §9, §10, §11, §12, §13, §14

Data set [10] concerns WM35 human melanoma cells. Briefly: Taxol take-up into cells, HPLC. The data set is classed as cell-based. How it is done:
as §9, §10, §11, §12, §13, §14

Data set [11] relates to ovarian cancer. Particulars: cited from earlier work.
In data set [12] the test system is breast cancer. Particulars: cited from earlier work.
For data set [13], the system named is lung cancer. The note with it: cited from earlier work.
Data set [14] has as its system human fibroblast cells. Briefly: "crystal violet" proliferation assay. Particulars: simvastatin in various concentrations with TCM regimen.
For data set [15], the system named is human melanoma cells (WM35, WM239A, A375P). Briefly: "crystal violet" proliferation assay. Particulars: statin 50-12.5 μM with docetaxel regimen at constant 0.5 μM. The data set is classed as cell-based. How it is done: The tests were carried out using cell lines of human melanoma originating from three stages of development: WM35 of the radial growth phase, WM239A metastatic line and A375P metastasis to lungs, malignant line.
The following statins were used in the studies: atorvastatin, fluvastatin, rosuvastatin, and pravastatin. The tests were carried out using cell lines of human melanoma originating from invasive stages of development: WM239A metastatic line and A375P P-metastasis to lungs, malignant line. […] Methodology according to that described in Example 1 was used. Additionally, the toxicity was analysed by investigations of reduced and oxidised glutathione contents. HPLC method was used.

The mark [16] stands for this setting: cell count 22.5 mln, in the presence of various statins.
The mark [17] stands for this setting: relative to Docetaxel (T) = 100.
[18] abbreviates: cell count 34.2 mln, in the presence of various statins.
Where [19] appears, read: WM 35, cell count 35.4 mln, in the presence of various statins.

Each structure is given as a SMILES string. ≈ marks a conversion by molar mass, not a printed value.

Regarding `CC(C)n1c(/C=C/C(O)CC(O)CC(=O)O)c(-c2ccc(F)cc2)c2ccccc21` (centres unmarked) [fluvastatin], the solubility in water in [1] is 0.46 µg/mL (≈ 1.12 µM).
In general, Log P refers to a log measure of how a compound divides between an organic and an aqueous phase. Regarding `CC[C@H](C)C(=O)O[C@H]1C[C@H](O)C=C2C=C[C@H](C)[C@H](CC[C@@H](O)C[C@@H](O)CC(=O)O)[C@H]21` [pravastatin], the “toxicity against human melanoma cells” value in data set [2] was “is not toxic and it does not affect the malignant cells”. Further, the solubility in water in [1] is 19000 µg/mL (≈ 44800 µM). Also, in data set [3], the “Log P” value is 0.59.
With `CC(C)c1nc(N(C)S(C)(=O)=O)nc(-c2ccc(F)cc2)c1/C=C/[C@@H](O)C[C@@H](O)CC(=O)O` [rosuvastatin], the “effect on take-up of taxanes into human melanoma cells” value in data set [4] is “weaker effect”. The solubility in water in [1] is 88.6 µg/mL (≈ 184 µM).
As to `CC(=O)O[C@@]12CO[C@@H]1C[C@H](O)[C@@]1(C)C(=O)[C@H](O)C3=C(C)[C@@H](OC(=O)[C@H](O)[C@@H](NC(=O)OC(C)(C)C)c4ccccc4)C[C@@](O)([C@@H](OC(=O)c4ccccc4)[C@H]21)C3(C)C` [T, Docetaxel], the GSH in data set [5] (48 h) is reported as 0.94 nmol/million of cells; in [6] (48 h) it was 1.07 nmol/million of cells; in data set [7] (48 h) it was 1.12 nmol/million of cells. The results for the GSH/GSSG in data set [5] (48 h), in data set [6] (48 h) and in data set [7] (48 h) were 6.78, 6.53 and 0.59, respectively. The GSSG in data set [5] (48 h) was 0.14 nmol/million of cells; in data set [6] (48 h), 0.16 nmol/million of cells; in data set [7] (48 h) it was 1.88 nmol/million of cells. For the same compound, the Total glutathione in data set [5] (48 h) is 1.22 nmol/million of cells; in data set [6] (48 h) it was 1.40 nmol/million of cells; in data set [7] (48 h), 4.8 nmol/million of cells. The figures for the “Cell count after 48 h” value in data set [5] (initial count 5.9 mln), in [6] (initial count 6.2 mln) and in data set [7] (initial count 7.1 mln) were 11.1 mln, 10.1 mln and 10.1 mln, respectively. The figures for the Taxol concentration in [8] (setting [16]), in data set [9] (setting [18]) and in data set [10] (setting [19]) were 36 µM, 74.8 µM and 57.08 µM, respectively. The “Taxol concentration per million of cells” value in data set [8] (setting [16]) is listed as 1.60 μM/million of cells; in [9] (setting [18]), 2.18 μM/million of cells; in [10] (setting [19]), 1.61 μM/million of cells. Moreover, the “% content in cells” value in data set [8] (setting [17]) is reported as 100%; in data set [9] (setting [17]), 100%; in data set [10] (WM 35, relative to Docetaxel (T) = 100), 100%.
For the compound `CC(=O)O[C@H]1C(=O)[C@@]2(C)[C@H]([C@H](OC(=O)c3ccccc3)[C@]3(O)C[C@H](OC(=O)[C@H](O)[C@@H](NC(=O)c4ccccc4)c4ccccc4)C(C)=C1C3(C)C)[C@]1(OC(C)=O)CO[C@@H]1C[C@@H]2O` [Paclitaxel, paclitaxel], the efficiency in treatment in data set [11] is listed as 30%; in data set [12], 50%; in data set [13], 20%.
`CCC(C)(C)C(=O)O[C@H]1C[C@@H](C)C=C2C=C[C@H](C)[C@H](CC[C@@H]3C[C@@H](O)CC(=O)O3)[C@H]21` [simvastatin]: the “effect on proliferation of normal cells” value in data set [14] is reported as “does not affect the normal cells of human skin such as fibroblasts”.
On to `CC(C)c1c(C(=O)Nc2ccccc2)c(-c2ccccc2)c(-c2ccc(F)cc2)n1CC[C@@H](O)C[C@@H](O)CC(=O)O` [atorvastatin], for which the “increase of Taxol content in melanoma cells, on average” value in [10] (WM35 (radial phase), in relation to the control with Taxol alone) is recorded as “two hundred percent”. For the same compound, the “effect on proliferation of human melanoma cells” value in data set [15] was “permanently inhibit synergistically”. Moreover, the “take-ups higher by” value in data set [4] (melanoma cells from more advanced progression phases, vs Taxol alone) is recorded as 30-45%. Besides, the “effect on take-up of taxanes into human melanoma cells” value in [4] is recorded as “selectively increases the taxanes take-up into human melanoma cells”.

Source of the values: patent US10912756B2, “Method for the treatment of human melanoma” (UNIWERSYTET JAGIELLONSKI, priority 2017, dated 2021).
